Experimental data as given in US20080076762A1, “Novel 4-Aminopiperidine Derivatives” (priority 2004, published 2008).

Columns and labels:
plasmepsin II = plasmepsin II (Plasmodium falciparum, UniProt Q8I6V3); experiment: FRET assay for plasmepsin II; format: biochemical; conditions: pH 5, 37° C., substrate M-2120 1 μM
Procedure: (§1) The Fluorescence Resonance Energy Transfer (FRET) Assay for Plasmepsin II & IV and Human Cathepsin D & E:
(§2) The assay conditions are selected according to reports in the literature.
(§3) The FRET assay is performed in white polysorp plates (Fluoronunc, cat no 264 572) at 37° C. with a final volume of 80 μl.
(§4) The assay buffer is composed of 50 mM sodium acetate pH 5, 12.5% (w/v) glycerol, and 0.1% (w/v) BSA. The reaction consists of the following components: 60 μl assay buffer, 4 μl inhibitor (in DMSO), 8 μl substrate (M-2120 from BACHEM) to a final concentration of 1 μM and 8 μl enzyme (plasmepsin II, plasmepsin IV or cathepsin E to a final amount of 0.015 μg/ml per assay tube, cathepsin D to a final amount of 0.05 μg/ml per assay tube). The inhibitor is pre-diluted in DMSO in a dilution plate and six concentrations are prepared in duplicate. The compounds are usually tested at a final concentration varying from 1 nM to 100 μM. The substrate is diluted using 50% DMSO-50% assay buffer and the enzyme using assay buffer. The mixtures are then incubated for 3 h at 37° C. and the fluorescence is determined at 1 and 3 hour with a FluoroStar Galaxy from BMG using excitation and emission filters of 355 and 520 nm, respectively.
(§5) Auto-fluorescence of all the test substances is determined in assay buffer in the absence of substrate and enzyme and this value is subtracted from the final signal.
(§6) The inhibitory activity of the compounds is expressed as IC50, which represents the concentration of compound that inhibits 50% of the maximal (uninhibited) enzyme activity.

plasmepsin IV = plasmepsin IV (Plasmodium falciparum, UniProt Q8IM16); experiment: FRET assay for plasmepsin IV; format: biochemical; conditions: pH 5, 37° C., substrate M-2120 1 μM
plasmepsin IV, sequence (Q8IM16 122-449): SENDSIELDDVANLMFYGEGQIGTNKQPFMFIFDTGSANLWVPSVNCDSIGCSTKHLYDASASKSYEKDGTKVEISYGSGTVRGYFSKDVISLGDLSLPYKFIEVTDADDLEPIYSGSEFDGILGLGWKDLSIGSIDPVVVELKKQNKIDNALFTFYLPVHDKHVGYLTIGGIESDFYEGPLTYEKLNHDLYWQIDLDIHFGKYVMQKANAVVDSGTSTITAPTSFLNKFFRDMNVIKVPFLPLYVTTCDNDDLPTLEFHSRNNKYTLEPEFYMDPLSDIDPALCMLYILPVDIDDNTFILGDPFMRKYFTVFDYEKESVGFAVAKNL
Procedure: as §1, §2, §3, §4, §5, §6

plasmepsin II, sequence (Q8I6V3 125-453): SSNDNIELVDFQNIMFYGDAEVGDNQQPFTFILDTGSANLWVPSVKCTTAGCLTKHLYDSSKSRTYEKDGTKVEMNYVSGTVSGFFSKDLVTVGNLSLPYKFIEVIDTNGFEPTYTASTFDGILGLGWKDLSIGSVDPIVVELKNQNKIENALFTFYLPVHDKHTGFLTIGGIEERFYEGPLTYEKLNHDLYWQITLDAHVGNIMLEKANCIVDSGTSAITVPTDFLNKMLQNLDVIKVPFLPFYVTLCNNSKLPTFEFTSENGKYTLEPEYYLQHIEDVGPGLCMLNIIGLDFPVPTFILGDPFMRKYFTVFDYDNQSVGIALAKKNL

SMILES	IC50 (plasmepsin II) [nM]	IC50 (plasmepsin IV) [nM]
CCCCCc1ccc(C(=O)N(Cc2ccc(-c3ccc(Cl)c(Cl)c3)o2)C2CCN(CCC(C)C)CC2)cc1 [Example 220, N-[5-(3,4-dichloro-phenyl)-furan-2-ylmethyl]-N-[1-(3-methyl-butyl)-piperidin-4-yl]-4-pentyl-benzamide]	41	56
CCCCCc1ccc(C(=O)N(Cc2ccc(N3CCSCC3)nc2)C2CCN(CCC(C)C)CC2)nc1 [Example 226]	51	359
CCCCCc1ccc(C(=O)N(Cc2ccc(C(=O)NCc3c(F)cccc3F)cc2)C2CCN(CCC(C)C)CC2)nc1 [Example 223, 5-Pentyl-pyridine-2-carboxylic acid [4-(2,6-difluoro-benzylcarbamoyl)-benzyl]-[1-(3-methyl-butyl)-piperidin-4-yl]-amide]	40	1110
CCCCCc1ccc(C(=O)N(Cc2ccc(-c3ccc(C(=O)N4CCCCC4)cc3)cc2)C2CCN(CCC(C)C)CC2)nc1 [Example 163]	10	635
CCCCCc1ccc(C(=O)N(Cc2ccc(-c3ccc(C(=O)N4CCCCC4)cc3)cc2)C2CCN(CCC(C)C)CC2)s1 [Example 88]	77	–
CCCCCc1ccc(C(=O)N(Cc2ccc(-c3cccc(C)c3)cc2)C2CCN(CCC(C)C)CC2)nc1 [Example 166, 5-Pentyl-pyridine-2-carboxylic acid (3′-methyl-biphenyl-4-ylmethyl)-[1-(3-methyl-butyl)-piperidin-4-yl]-amide]	16	22
